This is an account of results in publication PMC10159843, “Babesia duncani multi-omics identifies virulence factors and drug targets” (Nature Microbiology, 2023).

Molecules are shown by their SMILES. Like-named read-outs stand apart in the source and are kept apart here. A value given as a limit tells only on which side of the number the result lay.

In data set [1] the test system is B. duncani. Particulars: continuous in vitro culture in human erythrocytes; cited from earlier work.
For data set [2], the system named is B. duncani. Description: microbe, parasite or virus in culture. It counts as cell-based, Babesia duncani.
The target of a further data set is B. duncani DHFR-TS (Babesia duncani, UniProt A0AAD9UQZ8). In kind it is biochemical.
Sequence of B. duncani DHFR-TS (A0AAD9UQZ8 1-514): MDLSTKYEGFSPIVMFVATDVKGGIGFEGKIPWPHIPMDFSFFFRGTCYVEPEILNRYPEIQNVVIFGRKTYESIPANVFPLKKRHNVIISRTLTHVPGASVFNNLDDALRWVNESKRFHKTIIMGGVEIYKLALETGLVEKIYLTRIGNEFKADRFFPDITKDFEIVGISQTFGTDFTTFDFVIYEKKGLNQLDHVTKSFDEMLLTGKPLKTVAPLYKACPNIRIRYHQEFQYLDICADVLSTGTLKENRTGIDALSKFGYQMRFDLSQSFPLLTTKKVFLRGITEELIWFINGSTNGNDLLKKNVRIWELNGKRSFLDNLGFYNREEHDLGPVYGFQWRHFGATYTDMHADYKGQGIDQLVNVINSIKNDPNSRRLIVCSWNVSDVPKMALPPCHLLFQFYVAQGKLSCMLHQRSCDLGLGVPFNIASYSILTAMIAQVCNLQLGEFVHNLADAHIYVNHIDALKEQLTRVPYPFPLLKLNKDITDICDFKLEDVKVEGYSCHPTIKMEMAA
In another data set the target is B. microti DHFR-TS (Babesia microti, UniProt A0A1R4AAV1). In kind it is biochemical.
Sequence of B. microti DHFR-TS (A0A1R4AAV1 1-502): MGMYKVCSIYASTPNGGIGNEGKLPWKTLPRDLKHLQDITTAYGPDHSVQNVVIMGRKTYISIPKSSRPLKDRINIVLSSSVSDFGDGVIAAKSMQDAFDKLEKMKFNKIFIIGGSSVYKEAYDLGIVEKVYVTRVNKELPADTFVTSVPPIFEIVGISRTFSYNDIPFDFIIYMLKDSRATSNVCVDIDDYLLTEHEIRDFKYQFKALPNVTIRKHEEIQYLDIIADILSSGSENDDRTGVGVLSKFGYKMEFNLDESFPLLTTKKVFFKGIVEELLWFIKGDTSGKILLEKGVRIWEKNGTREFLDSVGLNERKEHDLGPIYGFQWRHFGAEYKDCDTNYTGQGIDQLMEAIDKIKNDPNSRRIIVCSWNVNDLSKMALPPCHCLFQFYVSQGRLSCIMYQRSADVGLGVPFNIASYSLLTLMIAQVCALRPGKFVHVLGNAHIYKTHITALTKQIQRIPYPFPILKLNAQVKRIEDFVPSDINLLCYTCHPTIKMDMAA
Data set [3] can be described thus: MTT cytotoxicity on HCT116 cells. Particulars: human, HCT116 cells, read-out: HCT LC50. It counts as cell-based, human. On the procedure:
(§1) HeLa, HepG2, HEK and HCT116 cell lines were obtained from the American Type Culture Collection and maintained in Dulbecco’s modified Eagle’s medium (Invitrogen 11995-065) containing 25 mM glucose, 1 mM sodium pyruvate and supplemented with 5 mM HEPES, 10% FBS and penicillin-streptomycin (50 U ml^−1 penicillin, 50 µg ml^−1 streptomycin). An estimated 20,000 cells per well were seeded in a 96-well tissue culture plate and allowed to adhere. After 24 h, cells were treated with either vehicle alone (0.1% dimethylsulfoxide) or vehicle containing different concentrations of the target drugs using a 2-fold serial dilution starting at 10 mM. Dimethylsulfoxide at 10% was used as a positive control. Cells were incubated at 37 °C for 72 h, after which each well was incubated with 0.5 mg ml^−1 of MTT reagent (Cayman Chemical, 10009591) for 4 h in the dark at 37 °C. Following addition of 100 µl dimethylsulfoxide to each well, absorbance was measured at optical density (OD)590 nm using Spectra max plate reader. From the obtained OD values, percent cell viability was calculated by normalizing to the mean of 10% dimethylsulfoxide wells (set as 100% toxicity) and the mean of the vehicle control wells (set as 0% toxicity). Dose-response curves were plotted using GraphPad Prism v9.1.2

Data set [4] is described as follows: MTT cytotoxicity on HepG2 cells. It counts as cell-based, human. As to conditions: human, HepG2 cells, read-out: HepG2 LC50. On the procedure: as §1
Data set [5] is described as follows: MTT cytotoxicity on HEK293 cells. In kind it is cell-based, human. As to conditions: human, HEK293 cells, read-out: HEK293 LC50. On the procedure: as §1
Data set [6] can be described thus: MTT cytotoxicity on HeLa cells. In kind it is cell-based, human. Particulars: human, HeLa cells, read-out: HeLa LC50. On the procedure: as §1
The subject of another data set is HCT116. The experiment in a line: MTT cytotoxicity on HCT116 cells. It counts as cell-based, human. As to conditions: 72 h, read-out: HCT LC50. On the procedure: as §1
In another data set the test system is HepG2. The experiment in a line: MTT cytotoxicity on HepG2 cells. It counts as cell-based, human. As to conditions: 72 h, read-out: HepG2 LC50. On the procedure: as §1
The subject of the next data set is BdDHFR-TS. Description: Inhibition of DHFR enzymatic activity of recombinant BdDHFR-TS. In kind it is biochemical, B. duncani. As to conditions: 0.1 μM enzyme, 300 μM DHF, 300 μM NADPH. On the procedure: (§2) The IC50 was determined from a sigmoidal dose-response curve using GraphPad Prism v9.1.2. […]
(§3) denatured (2 X 20 min in 0.5N NaOH; 1.5 M NaCl) and neutralized (2 X 20 min in 0.5 M Tris-HCl, pH 7.5; 1.5 M NaCl). Southern blotting was done on nylon membrane, positively charged
(§4) (Cat. No. 1417240, Roche) using 10X SSC and followed by UV crosslinking of transferred DNA.
(§5) The membrane was hybridized overnight at 26 °C with the telomere probe and then washed twice for 5 min each in 2X SSC and for 20 min each in 0.5X SSC at 26°C. Bound probe was detected with disodium-2-chloro-5(4 methoxyspiro (1,2-dioxetane-3.2´-[5-chloro]tricycle[3.3.1.1.3.7] decan)-4-yl)-1-phenyl phosphate (CDP-StarTM, Cat. No.12041677001, Roche) according to the manufacturer’s instructions. The membrane was visualized using an Amersham ImageQuant 800 system (GE Healthcare Bio-Science AB, Uppsala, Sweden).
(§6) Cloning, Expression, and Purification of recombinant B. duncani and B. microti DHFR-TS […]
(§7) duncani (BdDHFR-TS) and B. microti (BmDHFR-TS) were cloned into pMAL-c4x by GenScript USA Inc. Both enzymes were expressed as fusion proteins with N’-terminal maltose-binding protein (MBP) tag. Constructs of pMAL-c4x-BdDHFR-TS and pMAL-c4x-BmDHFR-TS were transformed by heat shock into E. coli BL-21(DE3). E. coli BL-21(DE3) harboring pMAL-c4x-DHFR-TS was grown overnight in 2 ml LB ampicillin (100 µg/mL). […]

The next data set relates to HEK293. Description: MTT cytotoxicity on HEK293 cells. As to conditions: 72 h, read-out: HEK293 LC50. It counts as cell-based, human. On the procedure: as §1
Another data set concerns HeLa. The experiment in a line: MTT cytotoxicity on HeLa cells. In kind it is cell-based, human. Particulars: 72 h, read-out: HeLa LC50. As for the experimental part: as §1
In a further data set the test system is BmDHFR-TS. The experiment in a line: Inhibition of DHFR enzymatic activity of recombinant BmDHFR-TS. In kind it is biochemical, B. microti. As to conditions: 0.1 μM enzyme, 300 μM DHF, 300 μM NADPH. As for the experimental part:
as §2, §3, §4, §5, §6, §7

The subject of a further data set is human cell lines. The experiment in a line: In vitro therapeutic index of antifolates against human cell lines. In kind it is cell-based. As to conditions: human cell lines versus B. duncani IC50. As for the experimental part:
Drug efficacy against B. duncani in vitro was determined using the SYBR Green assay as previously described. Briefly, a culture of B. duncani-infected human erythrocytes at 0.1% parasitemia and 5% haematocrit was maintained for 60 h in vitro in a 96-well plate in the absence or presence of varying concentrations of the drug of interest at concentrations ranging between 0.6 nM and 10 µM. An equal volume of lysis buffer (0.008% saponin, 0.08% Triton X-100, 20 mM Tris-HCl (pH 7.5) and 5 mM EDTA) containing SYBR Green-I (0.01%) was added to each well and the plate incubated at 37 °C for 1 h in the dark. Fluorescence counts in each well were measured at 480 nm (excitation) and 540 nm (emission) using a BioTek Synergy Mx microplate reader and background fluorescence from control wells containing uninfected RBCs was subtracted. A dose-response curve representing the fluorescence counts against the logarithm of the drug concentration was fitted by nonlinear regression and used to determine the IC50 of each drug. Analysis was conducted using GraphPad Prism 9.2.1. For each drug, two independent experiments, each with biological triplicates, were conducted. Data are shown as mean ± s.d. […]

As for `O=C1C(O)=C([C@H]2CC[C@H](c3ccc(Cl)cc3)CC2)C(=O)c2ccccc21` [Atovaquone], in the data set with B. duncani [1], the “susceptibility of B. duncani” value is given as “low susceptibility”. The half-inhibitory concentration (IC50) with B. duncani [2] (Babesia duncani, Erythrocyte, read-out: IC50 of atovaquone, parental isolate WA1) turned out to be 0.072 µM.

For the compound `NC(=O)C1=CN([C@@H]2O[C@H](COP(=O)(O)OP(=O)(O)OC[C@H]3O[C@@H](n4cnc5c(N)ncnc54)[C@H](OP(=O)(O)O)[C@@H]3O)[C@@H](O)[C@H]2O)C=CC1` [NADPH], the Vmax was determined as 9.8 ± 2.1 μmol · min^-1 ×10^4 on B. duncani DHFR-TS and 10.1 ± 1.6 μmol · min^-1 ×10^4 on B. microti DHFR-TS. In addition, the kcat on B. duncani DHFR-TS is 0.4 ± 0.1 s⁻¹; on B. microti DHFR-TS, 1.7 ± 0.3 s⁻¹. Also, the Km amounted to 32.9 ± 1 µM on B. duncani DHFR-TS (complementary ligand at 300 μM) and 27.3 ± 0.2 µM on B. microti DHFR-TS (complementary ligand at 300 μM).

Regarding `CCc1nc(N)nc(N)c1-c1ccc(Cl)cc1` [Pyrimethamine], the CC50 at 72 h in data set [3] was greater than 30 µM; in data set [4] it was 1690 µM; in data set [5], 500 µM; in [6], greater than 900 µM. Further, in the data set on B. duncani [2] (Babesia duncani, Erythrocyte, 60 h, read-out: B. duncani IC50), the IC50 amounted to 0.94 ± 0.017 µM.

Turning to `CC1(C)N=C(N)N=C(N)N1OCCCOc1cc(Cl)c(Cl)cc1Cl` [WR-99210], the CC50 in the data set on HCT116 was 1050 µM; in the data set on HepG2 it was 1100 µM; in the data set on HEK293 it was 1000 µM; with HeLa, greater than 900 µM. The IC50 in the data set with B. duncani [2] (read-out: B. duncani IC50) amounted to 0.00058 µM; in the data set on BdDHFR-TS, 0.0039 µM; with BmDHFR-TS it was 0.0068 µM. In the data set with human cell lines, the “TI (therapeutic index)” value was greater than 15K.

As for `CC[C@H]1OC(=O)[C@H](C)[C@@H](O[C@H]2C[C@@](C)(OC)[C@@H](O)[C@H](C)O2)[C@H](C)[C@@H](O[C@@H]2O[C@H](C)C[C@H](N(C)C)[C@H]2O)[C@](C)(O)C[C@@H](C)CN(C)[C@H](C)[C@@H](O)[C@]1(C)O` [azithromycin], in the data set with B. duncani [1], the “susceptibility of B. duncani” value is given as “low susceptibility”.

With `CCC[C@@H]1C[C@@H](C(=O)N[C@@H]([C@H]2O[C@H](SC)[C@H](O)[C@@H](O)[C@H]2O)[C@H](C)Cl)N(C)C1` [clindamycin], in the data set with B. duncani [1], the “susceptibility of B. duncani” value is listed as “low susceptibility”.

As to `C=C[C@H]1C[N@@]2CC[C@H]1C[C@H]2[C@H](O)c1ccnc2ccc(OC)cc12` [quinine], the “susceptibility of B. duncani” value in the data set with B. duncani [1] is given as “low susceptibility”.

As a reminder, the IC50 is the concentration that inhibits the measured activity by half. The term kcat denotes the maximal rate divided by the concentration of active sites. Broadly, the Km is the concentration of substrate that gives half-maximal velocity.
